For one compound, Papp A→B and Papp B→A results are on record in article PMC7746945 (Neuro-Oncology, 2020).

Molecules are shown by their SMILES. Where two headings read alike, the source gives them in different places.

This series addresses T1, MDR1 (Homo sapiens, UniProt P08183).
T1 construct: host or cells: MDCKII (Madin-Darby canine kidney type II) cells stably expressing human MDR1 cDNA
Put plainly: Directional transport of [14C]-olaparib across MDCKII-MDR1 monolayers, with or without ketoconazole. Format: in vitro ADME. The procedure:
Canine kidney epithelial cells, stably expressing human MDR1 cDNA (Madin-Darby canine kidney type II [MDCKII]–MDR1 cells) or empty vector (MDCKII control), were used to model the intact BBB and determine permeability coefficients of (^14C)-olaparib in the presence of ketoconazole (25 μM). Whole body autoradiography was performed on male pigmented rats after single oral administration of [^14C]-olaparib (15 mg/kg; 5 MBq/kg). For autoradiography studies, animal care and experiments were carried out in accordance with AstraZeneca guidelines, which comply with UK standards. […] Xenograft experiments were performed under the relevant UK Home Office Project Licence and carried out with ethical approval from the University of Glasgow under the Animal (Scientific Procedures) Act 1986 and the EU directive 2010. Mice were maintained in individually ventilated cages with environmental enrichment and following the guidelines of ARRIVE (Animal Research: Reporting of In Vivo Experiments). […] Ratiometric t-test analysis determined SER confidence intervals and P-values. Further details are available in the Supplementary Material.
Apparent permeability coefficients were calculated for apical to basolateral (Papp a‒b) and basolateral to apical transport (Papp b‒a) as described in Methods. […] (B) Single oral doses of 15 mg/kg [14C]-olaparib were administered to male pigmented rats that were subsequently culled, sectioned, and subjected to whole body autoradiography at the timepoints shown. Radioactivity was excluded from the central nervous system in all animals at all timepoints. […] Blood, tumor, and contralateral (non tumor bearing) brain were harvested and snap frozen at the time points shown. […] Note different y-axis scales.
Monolayers were cultured in Dulbeco’s Modified Eagle Medium (DMEM) supplemented with glucose (4.5 g/L), 10% fetal calf serum, penicillin and streptomycin on semi-permeable filter inserts (Transwell plates 3401, Costar, Cambridge, MA) for three days. Under these conditions MDR1 localises to the apical plasma membrane. Monolayer integrity was assessed by transepithelial electrical resistance (TEER) measurement then inserts washed with Hank’s Balanced Salt Solution (HBSS) and transferred to 12-well plates containing HBSS (to measure apical to basal transport, a – b) or [14C]-olaparib diluted in HBSS (dose solution, to measure basal to apical transport, b – a). After addition of dose solution (a – b) or HBSS (b – a) to the apical chamber, samples of apical and basolateral compartments were collected immediately after dosing and after 120 minutes incubation. Three concentrations of 14C-olaparib were tested (0.1, 1 and 10 µM), each in three replicates. Radioactivity was determined by liquid scintillation counting. […] Transport of olaparib or reference substrate cimetidine was determined in MDCKII-BCRP cells. Apparent permeability coefficients (Papp) were calculated:
Efflux ratio = Papp b - a /a - b = Papp b - a / Papp a - b (mean)
MDCKII corrected efflux ratio =
Papp b - a /a - b ratio in transfected MDCKII cells
Papp b - a /a - b ratio in MDCKII control cells (mean)

[1] abbreviates: MDCK-MDR1, with ketoconazole 25 µM, read-out: Papp b-a + ketoconazole (SD).

T1 sequence (P08183 whole entry): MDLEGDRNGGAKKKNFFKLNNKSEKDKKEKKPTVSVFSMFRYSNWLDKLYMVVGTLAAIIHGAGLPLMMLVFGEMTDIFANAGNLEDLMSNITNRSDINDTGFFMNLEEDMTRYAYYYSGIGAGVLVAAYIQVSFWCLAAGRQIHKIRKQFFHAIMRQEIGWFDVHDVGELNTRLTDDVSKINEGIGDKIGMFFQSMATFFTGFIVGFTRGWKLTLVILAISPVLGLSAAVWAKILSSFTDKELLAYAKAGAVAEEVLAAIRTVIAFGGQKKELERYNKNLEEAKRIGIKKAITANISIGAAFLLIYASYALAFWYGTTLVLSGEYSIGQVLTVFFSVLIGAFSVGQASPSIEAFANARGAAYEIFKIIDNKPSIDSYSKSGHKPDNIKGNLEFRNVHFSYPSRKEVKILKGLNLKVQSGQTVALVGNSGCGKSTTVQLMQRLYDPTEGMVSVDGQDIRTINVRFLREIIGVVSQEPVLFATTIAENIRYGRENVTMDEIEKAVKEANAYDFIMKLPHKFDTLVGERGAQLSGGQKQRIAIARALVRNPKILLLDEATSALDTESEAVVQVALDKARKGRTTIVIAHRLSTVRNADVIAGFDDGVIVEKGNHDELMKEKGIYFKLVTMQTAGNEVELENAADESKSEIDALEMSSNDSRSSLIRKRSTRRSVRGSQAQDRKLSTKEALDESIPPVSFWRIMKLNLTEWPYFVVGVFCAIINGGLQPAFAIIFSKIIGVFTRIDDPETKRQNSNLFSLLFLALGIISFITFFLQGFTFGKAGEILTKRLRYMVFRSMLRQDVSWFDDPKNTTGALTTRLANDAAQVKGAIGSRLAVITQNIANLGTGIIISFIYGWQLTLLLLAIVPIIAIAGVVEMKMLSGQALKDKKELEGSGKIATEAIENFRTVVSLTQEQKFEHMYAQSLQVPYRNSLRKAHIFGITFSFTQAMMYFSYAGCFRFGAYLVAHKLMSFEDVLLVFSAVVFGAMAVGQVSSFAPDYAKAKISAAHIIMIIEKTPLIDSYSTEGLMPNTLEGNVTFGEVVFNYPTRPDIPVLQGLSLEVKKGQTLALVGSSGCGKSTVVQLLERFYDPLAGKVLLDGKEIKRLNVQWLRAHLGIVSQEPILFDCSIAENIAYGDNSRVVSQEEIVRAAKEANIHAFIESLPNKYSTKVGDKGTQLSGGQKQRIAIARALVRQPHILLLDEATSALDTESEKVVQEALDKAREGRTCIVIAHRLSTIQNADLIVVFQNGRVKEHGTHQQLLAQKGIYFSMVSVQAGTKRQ

Under “MDCK-MDR1”, `O=C(c1cc(Cc2n[nH]c(=O)c3ccccc23)ccc1F)N1CCN(C(=O)C2CC2)CC1` [olaparib, 4-[3-(4-cyclopropanecarbonylpiperazine-1-carbonyl)-4-fluorobenzyl]-2H-phthalazin-1-one] returned a Papp A→B at 120 min, 1 µM of 0.28 ×10⁻⁶ cm/s; a Papp A→B at 120 min, 10 µM of 0.58 ×10⁻⁶ cm/s; a Papp B→A at 120 min, 1 µM of 40.6 ×10⁻⁶ cm/s. The Papp B→A at 120 min, 10 µM (MDCK-MDR1, read-out: Papp b-a (SD)) was found to be 39.4 ×10⁻⁶ cm/s. Moreover, under setting [1], the Papp B→A at 120 min, 1 µM is 24.1 ×10⁻⁶ cm/s and the Papp B→A at 120 min, 10 µM came to 17.1 ×10⁻⁶ cm/s.

One may read the Papp A→B as how fast a substance crosses the layer from the apical side. Read a low Papp A→B as slow passage. For orientation: Papp B→A means the apparent permeability from the basolateral to the apical side of a cell layer.
